Assay results as given in patent US5023271A, “Pharmaceutical microemulsions” (priority 1985, dated 1991).

Tests used:
[1] = Long term daily injection to rabbits, serum samples at 1 week intervals; settings: 1 ml preparation of Example 1 daily for 30 days
Procedure: New Zealand male rabbits were injected daily with 1 ml doses of the preparation of Example 1 for 30 days.

[2] = test system: lipoprotein fractions; test: Distribution of injected α-tocopherol and tocopherol acetate among serum lipoprotein fractions of rabbits
Procedure: The serum samples were also layered under a sodium chloride gradient and centrifuged. The distribution of the injected α-tocopherol and tocopherol acetate among the lipoprotein fractions was assessed.

[3] = Short term serum and tissue levels after intravenous injection to rabbits
Text: (§1) The rabbits were then sacrificed and the tissues analyzed for their content of tocopherol and tocopherol acetate.

[4] = Serum and liver extract levels in rats after IV injection; settings: 1 ml preparation of Example 1 IV
Procedure: The animals were sacrificed at 15 minute intervals for the first hour, after two hours, and then after 1, 3, 5, and 10 days. The levels of α-tocopherol and tocopherol acetate were assayed in the sera and liver extracts.

[5] = in vivo; settings: rabbit, iv, 15 mL/animal
Text: as §1

[6] = test system: lipoprotein components of human serum; test: In vitro transfer of tocopherol from microemulsion to human serum lipoproteins (sodium chloride gradient); settings: 100 μl microemulsion of Example 1 + 900 μl saline, 1 hr, 37°
Procedure: The diffusion of tocopherol in the mixtures was compared with the distribution of lipoproteins in the same mixtures and with the distribution of tocopherol from the untreated emulsion.
For a control, 100 μl of the microemulsion were incubated with 900 μl of saline solution under the same conditions. Each mixture was underlayered in a sodium chloride gradient and separated by ultracentrifugation according to Foreman, et al, J Lipid Research (1977) 18:759-767. The fractions of various densities were collected and each fraction was assayed for the content of tocopherol, tocopherol acetate, and cholesterol. The microemulsion alone mixed with saline gives a single peak for tocopherol at a density of approximately 1.018 g/ml. […] The treatment of microemulsion with serum effects the transfer of the tocopherol to serum in conjunction with the lipoprotein content thereof.

[7] = cited from earlier work

For CC(=O)Oc1c(C)c(C)c2c(c1C)CCC(C)(CCC[C@H](C)CCC[C@H](C)CCCC(C)C)O2 (stereo partly drawn) [tocopherol acetate, α-tocopherol (dl) acetate], the serum tocopherol acetate [1] was “No tocopherol acetate was detectable”, the “distribution among lipoprotein fractions after injection” value ([2]; preparation of Example 1 i.v., serum samples on sodium chloride gradient) was “remained mainly at the density of the microemulsion alone” and the “α-tocopherol acetate in circulation by the end of 4 hr” value ([3]; 15 ml preparation of Example 1 i.v., 4 hr) was “finally disappearing from the circulation by the end of the 4 hr period”. The “α-tocopherol acetate in liver, spleen, and other tissues” value ([3]; after 4 hr) was “no α-tocopherol acetate could be detected”, the “hydrolysis of tocopherol acetate in liver” value [4] was “completely hydrolyzed after approximately two hours” and the concentration at 5 min [5] was 280 µg/mL.
For Cc1c(C)c2c(c(C)c1O)CCC(C)(CCCC(C)CCCC(C)CCCC(C)C)O2 (racemic) [α-tocopherol], the “distribution among lipoprotein fractions after injection” value ([2]; rabbit, in vivo, iv) is listed as “transferred, apparently to the LDL fraction, in exchange for cholesterol”, the “density of the tocopherol peak, microemulsion mixed with saline (control)” value [6] is listed as “approximately 1.018 g/ml” and the “adverse outcome of oral administration” value ([7]; in vivo, po) is listed as “gastrointestinal problems”. For the same compound, the “adverse outcome of intravenous administration” value ([7]; intravenous, premature infants) was “implicated in several neonatal deaths”.
